US7776892B2, “Fungicidal composition comprising a pyridylethylbenzamide derivative and a compound capable of inhibiting the spores germination or mycelium growth by acting on different metabolic routes” (Bayer Cropscience S.A., priority 2004, dated 2010)
Counter-ions that a name gives are not always drawn.

Key:
Type in all cases: in vivo
[1] = tested on: Peronospora parasitica; test: Example 12: efficacy against Peronospora parasitica on cabbage plants, Compound 1 and Compound A; conditions: Hyaloperonospora parasitica, 120 h, grading 5 days after contamination
Method: The active ingredient tested is prepared by potter homogenisation in a concentrated suspension type formulation at 100 g/l. This suspension is then diluted with water to obtain the desired active material concentration.
Cabbage plants (Eminence variety) in starter cups, sown on a 50/50 peat soil-pozzolana substrate and grown at 18-20° C., are treated at the cotyledon stage by spraying with the aqueous suspension described above.
(§1) Plants, used as controls, are treated with an aqueous solution not containing the active material.
After 24 hours, the plants are contaminated by spraying them with an aqueous suspension of Peronospora parasitica spores (50,000 spores per ml). The spores are collected from infected plant.
The contaminated cabbage plants are incubated for 5 days at 20° C., under a humid atmosphere.
Grading is carried out 5 days after the contamination, in comparison with the control plants.

[2] = tested on: Botrytis cinerea; test: Example 4: efficacy against Botrytis cinerea on gherkin plants, Compound 1 and folpet; conditions: grading 5 to 7 days after contamination
Method: (§2) The formulated compounds are diluted with water to obtain the desired active material concentration. Gherkin plants (Petit vert de Paris variety) in starter cups, sown on a 50/50 peat soil-pozzolana substrate and grown at 18-20° C., are treated at the cotyledon Z11 stage by spraying with the aqueous suspension described above. Plants, used as controls, are treated with an aqueous solution not containing the active material.
(§3) After 24 hours, the plants are contaminated by depositing drops of an aqueous suspension of Botrytis cinerea spores (150,000 spores per ml) on upper surface of the leaves. The spores are collected from a 15-day-old culture and are suspended in a nutrient solution composed of: • 20 g/L of gelatine • 50 g/L of cane sugar • 2 g/L of NH4NO3 • 1 g/L of KH2PO4
(§4) The contaminated gherkin plants are settled for 5/7 days in a climatic room at 15-11° C. (day/night) and at 80% relative humidity. Grading (% of efficacy) is carried out 5 to 7 days after the contamination, in comparison with the control plants.

[3] = tested on: Botrytis cinerea; test: Example 2: efficacy against Botrytis cinerea on gherkin plants, Compound 1 and propineb; conditions: grading 5 to 7 days after contamination
Method: (§5) Gherkin plants (Petit vert de Paris variety) in starter cups, sown on a 50/50 peat soil-pozzolana substrate and grown at 18-20° C., are treated at the cotyledon Z11 stage by spraying with the aqueous suspension described above.
as §3, §4

[4] = tested on: Sphaerotheca fuliginea; test: Example 11: efficacy against Sphaerotheca fuliginea on gherkin plants, Compound 1 and tolylfluanid; conditions: Podosphaera fuliginea, 504 h, grading 21 days after contamination
Method: (§6) The formulated compounds are diluted with water to obtain the desired active material concentration.
Gherkin plants (Vert petit de Paris variety) in starter cups, sown on a 50/50 peat soil-pozzolana substrate and grown at 20° C./23° C., are treated at the 2-leaves stage by spraying with the aqueous suspension described above. Plants, used as controls, are treated with an aqueous solution not containing the active material.
After 24 hours, the plants are contaminated by spraying them with an aqueous suspension of Sphaerotheca fuliginea spores (100,000 spores per ml). The spores are collected from a contaminated plants The contaminated gerkhin plants are incubated at about 20° C./25° C. and at 60/70% relative humidity.
(§7) Grading (% of efficacy) is carried out 21 days after the contamination, in comparison with the control plants.

[5] = tested on: Sphaerotheca fuliginea; test: Example 13: efficacy against Sphaerotheca fuliginea on gherkin plants, Compound 1 and iprovalicarb; conditions: grading 21 days after contamination
Method: Gherkin plants (Vert petit de Paris variety) in starter cups, sown on a 50/50 peat soil-pozzolana substrate and grown at 20° C./23° C., are treated at the 2-leaves stage by spraying with the aqueous suspension described above.
After 24 hours, the plants are contaminated by spraying them with an aqueous suspension of Sphaerotheca fuliginea spores (100 000 spores per ml). The spores are collected from a contaminated plants The contaminated gerkhin plants are incubated at about 20° C./25° C. and at 60/70% relative humidity.
as §7

[6] = tested on: Erysiphe graminis f. sp. tritici; test: Example 14: efficacy against Erysiphe graminis f. sp. tritici on wheat plants, Compound 1 and chlorothalonil; conditions: Blumeria graminis, grading 7 to 14 days after contamination
Method: The formulated compounds are diluted with water to obtain the desired active material concentration
Wheat plants (Audace variety) in starter cups, sown on 50/50 peat soil-pozzolana substrate and grown at 12° C., are treated at the 1-leaf stage (10 cm tall) by spraying with the aqueous suspension described above.
as §1
After 24 hours, the plants are contaminated by dusting them with Erysiphe graminis f. sp. tritici spores, the dusting being carried out using diseased plants.
Grading is carried out 7 to 14 days after the contamination, in comparison with the control plants.

[7] = tested on: Botrytis cinerea; test: Example 1: efficacy against Botrytis cinerea on gherkin plants, Compound 1 and mancozeb; conditions: grading 5 to 7 days after contamination
Method: as §5, §3, §4

[8] = tested on: Botrytis cinerea; test: Example 8: efficacy against Botrytis cinerea on gherkin plants, Compound 1 and metalaxyl-M; conditions: grading 5 to 7 days after contamination
Method: (§8) The active ingredients tested are prepared by potter homogenisation in a mixture of acetone/tween/water. This suspension is then diluted with water to obtain the desired active material concentration.
as §2, with “Gherkin” for “The formulated compounds are diluted with water to obtain the desired active material concentration. Gherkin”
as §3, §4

[9] = tested on: Botrytis cinerea; test: Example 9: efficacy against Botrytis cinerea on gherkin plants, Compound 1 and propamocarb-HCl; conditions: grading 5 to 7 days after contamination
Method: as §5, §3, §4

[10] = tested on: Botrytis cinerea; test: Example 10: efficacy against Botrytis cinerea on gherkin plants, Compound 1 and fosetyl-Al; conditions: grading 5 to 7 days after contamination
Method: as §6
as §2, with “Gherkin” for “The formulated compounds are diluted with water to obtain the desired active material concentration. Gherkin”
as §3, §4

[11] = tested on: Botrytis cinerea; test: Example 7: efficacy against Botrytis cinerea on gherkin plants, Compound 1 and benalaxyl; conditions: grading 5 to 7 days after contamination
Method: as §8
as §2, with “Gherkin” for “The formulated compounds are diluted with water to obtain the desired active material concentration. Gherkin”
as §3, §4

[12] = tested on: Botrytis cinerea; test: Example 5: efficacy against Botrytis cinerea on gherkin plants, Compound 1 and iprodione; conditions: grading 5 to 7 days after contamination
Method: as §2, §3, §4

[13] = tested on: Botrytis cinerea; test: Example 6: efficacy against Botrytis cinerea on gherkin plants, Compound 1 and fludioxonil
Method: as §8
as §2, with “Gherkin” for “The formulated compounds are diluted with water to obtain the desired active material concentration. Gherkin”
as §3, §4

[14] = tested on: Puccinia recondita; test: Example 3: efficacy against Puccinia recondita on wheat plants, Compound 1 and captan; conditions: 240 h, grading 10 days after contamination
Method: as §8
Wheat plants (Scipion variety) in starter cups, sown on 50/50 peat soil-pozzolana substrate and grown at 12° C., are treated at the 1-leaf stage (10 cm tall) by spraying with the aqueous suspension described above.
as §1
After 24 hours, the plants are contaminated by spraying the leaves with an aqueous suspension of Puccinia recondita spores (100,000 spores per ml). The spores are collected from a 10-day-old contaminated wheat and are suspended in water containing 2.5 ml/l of tween 80 10%. The contaminated wheat plants are incubated for 24 hours at 20° C. and at 100% relative humidity, and then for 10 days at 20° C. and at 70% relative humidity. Grading is carried out 10 days after the contamination, in comparison with the control plants.

Compound: O=C(NCc1ncc(C(F)(F)F)cc1Cl)c1c(Cl)cccc1Cl [Compound A, 2,6-dichloro-N-{[3-chloro-5-(tri-fluoromethyl)-2-pyridinyl]methyl}benzamide, reference compound]
- Emax at 12.3 ppm [1]: 40%

Compound: O=C1c2ccccc2C(=O)N1SC(Cl)(Cl)Cl [Folpet, folpet, reference compound]
- Emax at 333 ppm ([2]; 333 ppm): 0%
- Emax at 1000 ppm ([2]; 1000 ppm): 0%

Compound: propineb [reference compound]
- % Efficacy ([3]; 3000 ppm): 0%

Compound: Cc1ccc(N(SC(F)(Cl)Cl)S(=O)(=O)N(C)C)cc1 [Tolylfluanid, tolylfluanid]
- Emax at 12.3 ppm ([4]; 12.3 ppm): 0%
- Emax at 37 ppm ([4]; 37 ppm): 50%

Compound: Cc1ccc(C(C)NC(=O)[C@@H](NC(=O)OC(C)C)C(C)C)cc1 (stereo partly drawn) [Iprovalicarb, iprovalicarb, reference compound]
- % Efficacy ([5]; 111 ppm): 50%

Compound: N#Cc1c(Cl)c(Cl)c(Cl)c(C#N)c1Cl [Chlorothalonil, chlorothalonil, reference compound]
- Emax at 250 g/ha [6]: 0%

Compound: O=C(NCCc1ncc(C(F)(F)F)cc1Cl)c1ccccc1C(F)(F)F [Compound 1, N-{2-[3-chloro-5-(trifluoromethyl)-2-pyridinyl]ethyl}-2-trifluoromethylbenzamide]
- Emax at 37 ppm ([3]; Botrytis cinerea, 37 ppm): 65%
- Emax at 111 ppm ([3]; Botrytis cinerea, 111 ppm): 87%
- Emax at 37 ppm ([7]; Botrytis cinerea, 37 ppm): 50%
- Emax at 111 ppm ([7]; Botrytis cinerea, 111 ppm): 70%
- Emax at 4.1 ppm ([4]; 4.1 ppm): 69%
- Emax at 37 ppm ([8]; Botrytis cinerea, 37 ppm): 45%
- Emax at 111 ppm ([9]; 111 ppm): 70%
- Emax at 111 ppm ([10]; Botrytis cinerea, 111 ppm): 70%
- Emax at 37 ppm ([11]; 37 ppm): 78%
- Emax at 37 ppm [12]: 0%
- Emax at 12.3 ppm ([5]; Podosphaera fuliginea, 504 h, 12.3 ppm): 65%
- Emax at 12.3 ppm ([13]; 12.3 ppm, gherkin plants, grading 5 to 7 days after contamination): 0%
- Emax at 37 ppm ([13]; 37 ppm, gherkin plants, grading 5 to 7 days after contamination): 38%
- Emax at 12.3 ppm [1]: 0%
- Emax at 37 ppm ([2]; 37 ppm): 50%
- Emax at 111 ppm ([2]; 111 ppm): 70%
- Emax at 250 g/ha [6]: 30%
- Emax at 500 g/ha ([6]; 500 g/ha): 60%
- Emax at 125 ppm [14]: 0%
- Emax at 250 ppm [14]: 10%

Compound: COC(=O)C(C)N(C(=O)Cc1ccccc1)c1c(C)cccc1C (stereo not drawn) [Benalaxyl, benalaxyl, reference compound]
- Emax at 111 ppm ([11]; 111 ppm): 7%

Compound: O=C1C2CC=CCC2C(=O)N1SC(Cl)(Cl)Cl (stereo not drawn) [Captan, captan]
- Emax at 125 ppm [14]: 0%
- Emax at 250 ppm [14]: 0%
- Emax at 500 ppm ([14]; 500 ppm): 10%

Compound: COCC(=O)N(c1c(C)cccc1C)[C@H](C)C(=O)OC [Metalaxyl-M, metalaxyl-M, reference compound]
- % Efficacy ([8]; 111 ppm): 0%

Compound: mancozeb [reference compound]
- % Efficacy ([7]; 1000 ppm): 0%

Compound: CCO[PH](=O)O [Fosetyl-Al, fosetyl-Al, reference compound]
- % Efficacy ([10]; 1000 ppm): 0%

Compound: CC(C)NC(=O)N1CC(=O)N(c2cc(Cl)cc(Cl)c2)C1=O [Iprodione, iprodione]
- Emax at 37 ppm [12]: 0%
- Emax at 111 ppm ([12]; 111 ppm): 90%

Compound: CCCOC(=O)NCCCN(C)C [Popamocarb-HCl, propamocarb-HCl, reference compound]
- Emax at 1000 ppm ([9]; 1000 ppm): 0%

Compound: N#Cc1c[nH]cc1-c1cccc2c1OC(F)(F)O2 [Fludioxonil, fludioxonil, reference compound]
- Emax at 4.1 ppm ([13]; read-out: % Efficacy): 0%
